In one experiment the target is T1, HLA-DR1 (Homo sapiens, UniProt P01903+P01911, A100R/D57E/F55L/F60I/F76Y/I96L/L162R/M171V/P40L/Q125E/R42F/V115G/Y59C).
T1 construct: EBV-transformed homozygous cell lines were used as a source of DR molecules; endogenous in cells; host or cells: LG-2 (EBV-transformed human B cell line, DR1 homozygous); lysate purified on a monoclonal antibody LB3.1 column
The experiment can be described thus: DR-peptide binding assay, DR1. Conditions: Table 3, binding affinity relative to HA 307-319 = 1.

Another experiment addresses T2, DR4w4 (Homo sapiens, UniProt P01903+P01911, A100K/A169T/F76Y/I96L/K127E/L162R/M171V/N62H/P40V/Q125Y/R42H/S133A/S149N/S66Y/V115G/V209L/W38E).
T2 construct: EBV-transformed homozygous cell lines were used as a source of DR molecules; endogenous in cells; host or cells: Preiss or Beh (EBV-transformed human B cell lines, DR4 Dw4 homozygous); lysate purified on a monoclonal antibody LB3.1 column
The experiment can be described thus: DR-peptide binding assay, DR4w4. The note with it: Table 3, binding affinity relative to HA 307-319 = 1.

A further experiment has as its system DR4w14. The experiment can be described thus: DR-peptide binding assay, DR4w14. Conditions: Table 3, […]. Details: species or system human.

Here are results for twelve compounds from US5679640A, “Immunosuppressant peptides” (priority 1995, dated 1997).

Non-standard residues stand in square brackets, D forms with d. Residues, ends and D or L forms follow the SMILES beside them. Hyp = O=C(O)[C@@H]1C[C@@H](O)CN1; Cha = N[C@@H](CC1CCCCC1)C(=O)O

Experimental for DR4w14: DR-peptide binding assay. Purified DR molecules (10-1,000 nM) were incubated with 10 nM ^125 I-radiolabeled peptide for 48 hours in the presence of added protease inhibitors. […] The final concentrations of protease inhibitors were: 1 mM PMSF, 1.3 mM 1,10-phenanthroline, 73 μM pepstatin A, 8 mM EDTA, 6 mM N-ethyl maleimide, and 200 μM Nα-p-tosyl-L-lysine chloromethyl ketone (TLCK). The final detergent concentration in the incubation mixture was 0.05% NP-40. Several of the peptides screened were hydrophobic and required DMSO to maintain solubility and reduce peptide adsorption to surfaces. In these instances peptide stock solutions were prepared in neat DMSO, and the final DMSO concentration in the incubation mixture was adjusted to 5%. […] The DR-peptide complexes were separated from free peptide by gel filtration on a Sephadex G50 (Pharmacia Fine Chemicals, Piscataway, N.J.) column (23×1.3 cm), as previously described. […] The columns were eluted using PBS (0.5% NP-40, 0.1% NAN3) collected in 1 ml fractions, which were then assayed for radioactivity. The fraction of peptide bound to DR (α) relative to the total amount of offered peptide was determined as the ratio of peptide in the void volume to the total peptide recovered. The α was corrected by subtracting the negative control (^125 I-peptide incubated for two days at room temperature in the presence of protease inhibitors and 120 μg/ml of unlabeled peptide, but in the absence of any DR).
To obtain a figure that positively correlated with the binding affinity, the data were expressed as relative binding values.

Regarding `C[C@H](NC(=O)[C@H](N)Cc1ccc(O)cc1)C(=O)N[C@@H](C)C(=O)N[C@@H](Cc1ccccc1)C(=O)N[C@@H](C)C(=O)N[C@@H](C)C(=O)N[C@@H](C)C(=O)N[C@@H](C)C(=O)N[C@H](C(=O)N[C@@H](C)C(=O)N[C@@H](CCCCN)C(=O)N[C@@H](C)C(=O)N[C@@H](C)C(=O)N[C@H](C)C(N)=O)[C@@H](C)O` (H-[dY]AAFAAAATAKAA[dA]-NH2), at HLA-DR1, the “MHC Binding Assay DR1” value is listed as “++ (affinity greater than 1.0)”. Also, the “MHC Binding Assay DR4w4” value at DR4w4 was “++ (affinity greater than 1.0)”. The “MHC Binding Assay DR4w14” value with DR4w14 is listed as “++ (affinity greater than 1.0)”.

As for `CC(C)C[C@H](NC(=O)[C@@H](NC(=O)[C@H](C)NC(=O)[C@H](C)NC(=O)[C@H](C)NC(=O)[C@H](C)NC(=O)[C@H](Cc1ccccc1)NC(=O)[C@H](C)NC(=O)[C@H](C)NC(=O)[C@H](N)Cc1ccc(O)cc1)[C@@H](C)O)C(=O)N[C@@H](CCCCN)C(=O)N[C@@H](C)C(=O)N[C@@H](C)C(=O)N[C@H](C)C(N)=O` (H-[dY]AAFAAAATLKAA[dA]-NH2), at HLA-DR1, the “MHC Binding Assay DR1” value was “++ (affinity greater than 1.0)”. The “MHC Binding Assay DR4w4” value at DR4w4 is “++ (affinity greater than 1.0)”. In the experiment with DR4w14, the “MHC Binding Assay DR4w14” value was “++ (affinity greater than 1.0)”.

In the case of `CC(C)C[C@H](NC(=O)[C@@H](NC(=O)[C@H](CCCCN)NC(=O)[C@H](C)NC(=O)[C@H](C)NC(=O)[C@H](C)NC(=O)[C@H](Cc1ccccc1)NC(=O)[C@H](C)NC(=O)[C@H](C)NC(=O)[C@H](N)Cc1ccc(O)cc1)[C@@H](C)O)C(=O)N[C@@H](C)C(=O)N[C@@H](C)C(=O)N[C@@H](C)C(=O)N[C@H](C)C(N)=O` (H-[dY]AAFAAAKTLAAA[dA]-NH2), on HLA-DR1, the “MHC Binding Assay DR1” value is listed as “++ (affinity greater than 1.0)”. For the same compound, on DR4w4, the “MHC Binding Assay DR4w4” value is “++ (affinity greater than 1.0)”. Besides, in the experiment on DR4w14, the “MHC Binding Assay DR4w14” value is listed as “++ (affinity greater than 1.0)”.

Regarding `CC(C)C[C@H](NC(=O)[C@@H](NC(=O)[C@@H](NC(=O)[C@H](CCC(N)=O)NC(=O)[C@H](CCCNC(=N)N)NC(=O)[C@H](CCC(N)=O)NC(=O)[C@H](Cc1ccccc1)NC(=O)[C@H](C)NC(=O)[C@H](C)NC(=O)[C@H](N)Cc1ccc(O)cc1)[C@@H](C)O)[C@@H](C)O)C(=O)N[C@@H](CCCCN)C(=O)N[C@@H](C)C(=O)N[C@@H](C)C(=O)N[C@H](C)C(N)=O` (H-[dY]AAFQRQTTLKAA[dA]-NH2), the “MHC Binding Assay DR1” value at HLA-DR1 is given as “++ (affinity greater than 1.0)”. At DR4w4, the “MHC Binding Assay DR4w4” value was “++ (affinity greater than 1.0)”. Further, the “MHC Binding Assay DR4w14” value in the experiment with DR4w14 is reported as “++ (affinity greater than 1.0)”.

For the compound `CC(C)C[C@H](NC(=O)[C@@H](NC(=O)[C@@H](NC(=O)[C@H](CCC(N)=O)NC(=O)[C@H](CCCNC(=N)N)NC(=O)[C@H](CCC(N)=O)NC(=O)[C@H](Cc1ccccc1)NC(=O)[C@H](C)NC(=O)[C@H](C)NC(=O)[C@H](N)Cc1ccc(O)cc1)[C@@H](C)O)[C@@H](C)O)C(=O)N[C@@H](CCCCN)C(=O)N[C@@H](C)C(=O)N[C@@H](C)C(=O)N[C@H](C)C(=O)O` (H-[dY]AAFQRQTTLKAA[dA]-OH), the “MHC Binding Assay DR1” value on HLA-DR1 is given as “++ (affinity greater than 1.0)”. Moreover, at DR4w4, the “MHC Binding Assay DR4w4” value was “++ (affinity greater than 1.0)”. Also, in the experiment on DR4w14, the “MHC Binding Assay DR4w14” value is on record as “++ (affinity greater than 1.0)”.

As for `CC(=O)N[C@H](C)C(=O)N[C@@H](C)C(=O)N[C@@H](CC1CCCCC1)C(=O)N[C@@H](C)C(=O)N[C@@H](C)C(=O)N[C@@H](C)C(=O)N[C@@H](C)C(=O)N[C@H](C(=O)N[C@@H](CC(C)C)C(=O)N[C@@H](CCCCN)C(=O)N[C@@H](C)C(=O)N[C@@H](C)C(=O)N[C@H](C)C(N)=O)[C@@H](C)O` [Ac-aAXAAAATLKAAa-NH2], at HLA-DR1, the “MHC Binding Assay DR1” value was “++ (affinity greater than 1.0)”. Moreover, the “MHC Binding Assay DR4w4” value at DR4w4 is given as “++ (affinity greater than 1.0)”. Besides, the “MHC Binding Assay DR4w14” value in the experiment on DR4w14 is reported as “++ (affinity greater than 1.0)”.

In the case of `CC(=O)N[C@H](C)C(=O)N[C@@H](C)C(=O)N[C@@H](CC1CCCCC1)C(=O)N[C@@H](C)C(=O)N[C@@H](C)C(=O)N[C@@H](C)C(=O)N[C@@H](CCCCN)C(=O)N[C@H](C(=O)N[C@@H](C)C(=O)N[C@@H](C)C(=O)N[C@@H](C)C(=O)N[C@@H](C)C(=O)N[C@H](C)C(N)=O)[C@@H](C)O` [Ac-aAXAAAKTAAAAa-NH2], on HLA-DR1, the “MHC Binding Assay DR1” value was “+ (0.51 to 1.0)”. The “MHC Binding Assay DR4w4” value on DR4w4 is “++ (affinity greater than 1.0)”. The “MHC Binding Assay DR4w14” value in the experiment on DR4w14 is “++ (affinity greater than 1.0)”.

On to `CC(=O)N[C@H](Cc1ccc(O)cc1)C(=O)N[C@@H](C)C(=O)N[C@@H](C)C(=O)N[C@@H](CC1CCCCC1)C(=O)N[C@@H](C)C(=O)N[C@@H](C)C(=O)N[C@@H](C)C(=O)N[C@@H](C)C(=O)N[C@H](C(=O)N[C@@H](CC(C)C)C(=O)N[C@@H](CCCCN)C(=O)N[C@@H](C)C(=O)N[C@@H](C)C(=O)N[C@H](C)C(N)=O)[C@@H](C)O` [Ac-yAAXAAAATLKAAa-NH2], for which, at HLA-DR1, the “MHC Binding Assay DR1” value is listed as “++ (affinity greater than 1.0)”. Further, the “MHC Binding Assay DR4w4” value at DR4w4 is given as “++ (affinity greater than 1.0)”. The “MHC Binding Assay DR4w14” value in the experiment with DR4w14 is listed as “++ (affinity greater than 1.0)”.

With `CC(=O)N[C@H](Cc1ccc(O)cc1)C(=O)N[C@@H](C)C(=O)N[C@@H](C)C(=O)N[C@@H](CC1CCCCC1)C(=O)N[C@@H](C)C(=O)N[C@@H](C)C(=O)N[C@@H](C)C(=O)N[C@@H](CCCCN)C(=O)N[C@H](C(=O)N[C@@H](C)C(=O)N[C@@H](C)C(=O)N[C@@H](C)C(=O)N[C@@H](C)C(=O)N[C@H](C)C(N)=O)[C@@H](C)O` [Ac-yAAXAAAKTAAAAa-NH2], at HLA-DR1, the “MHC Binding Assay DR1” value is given as “++ (affinity greater than 1.0)”. Moreover, the “MHC Binding Assay DR4w4” value on DR4w4 is “++ (affinity greater than 1.0)”. For the same compound, the “MHC Binding Assay DR4w14” value with DR4w14 is “++ (affinity greater than 1.0)”.

`C[C@H](NC(=O)[C@H](C)NC(=O)[C@H](CC1CCCCC1)NC(=O)[C@H](C)NC(=O)[C@@H](C)N)C(=O)N[C@@H](C)C(=O)N[C@@H](C)C(=O)N1C[C@H](O)C[C@H]1C(=O)N[C@@H](CCCCN)C(=O)N[C@@H](C)C(=O)N[C@@H](C)C(=O)N[C@@H](C)C(=O)N[C@H](C)C(N)=O` [aAXAAAABKAAAa-NH2] (H-[dA]A[Cha]AAAA[Hyp]KAAA[dA]-NH2): the “MHC Binding Assay DR1” value on HLA-DR1 is “++ (affinity greater than 1.0)”. On DR4w4, the “MHC Binding Assay DR4w4” value is recorded as “++ (affinity greater than 1.0)”. The “MHC Binding Assay DR4w14” value in the experiment on DR4w14 is listed as “++ (affinity greater than 1.0)”.

`CC(C)C[C@H](NC(=O)[C@@H](NC(=O)[C@H](C)NC(=O)[C@H](C)NC(=O)[C@H](C)NC(=O)[C@H](C)NC(=O)[C@H](CC1CCCCC1)NC(=O)[C@H](C)NC(=O)[C@@H](C)N)[C@@H](C)O)C(=O)N[C@@H](CCCCN)C(=O)N[C@@H](C)C(=O)N[C@@H](C)C(=O)N[C@H](C)C(N)=O` [aAXAAAATLKAAa-NH2]: at HLA-DR1, the “MHC Binding Assay DR1” value is given as “++ (affinity greater than 1.0)”. Further, at DR4w4, the “MHC Binding Assay DR4w4” value is given as “++ (affinity greater than 1.0)”. The “MHC Binding Assay DR4w14” value in the experiment on DR4w14 is on record as “++ (affinity greater than 1.0)”.

Turning to `C[C@H](NC(=O)[C@H](C)NC(=O)[C@H](C)NC(=O)[C@@H](NC(=O)[C@H](CCCCN)NC(=O)[C@H](C)NC(=O)[C@H](C)NC(=O)[C@H](C)NC(=O)[C@H](CC1CCCCC1)NC(=O)[C@H](C)NC(=O)[C@@H](C)N)[C@@H](C)O)C(=O)N[C@@H](C)C(=O)N[C@H](C)C(N)=O` [aAXAAAKTAAAAa-NH2], at HLA-DR1, the “MHC Binding Assay DR1” value was “++ (affinity greater than 1.0)”. The “MHC Binding Assay DR4w4” value on DR4w4 is “++ (affinity greater than 1.0)”. For the same compound, the “MHC Binding Assay DR4w14” value in the experiment on DR4w14 was “++ (affinity greater than 1.0)”.
